ChEMBL document CHEMBL5034015, “Structure-Based Optimization of 3-Phenyl-N-(2-(3-phenylureido)ethyl)thiophene-2-sulfonamide Derivatives as Selective Mcl-1 Inhibitors” (J Med Chem, 2021)
Activity calls are given as the source filed them.

Tests used:
[1] = test system: HEK-293T; test: Cytotoxicity against HEK293T cells assessed as reduction in cell viability incubated for 48 hrs by CCK8 assay; details: Homo sapiens
[2] = test system: HeLa; test: cells; details: Homo sapiens, 48 h
Description: Cytotoxicity against human HeLa cells assessed as inhibition of cell growth incubated for 48 hrs by CCK8 assay

[3] = target: Induced myeloid leukemia cell differentiation protein Mcl-1 (Homo sapiens, UniProt Q07820); test: Binding affinity to full length human MCL1 expressed in Escherichia coli BL21 (DE3) at up to 100 uM preincubated for 30 mins followed by 5-FAM-QEDIIIINIARHLAQVGDSMD-RSIPPG tracer addition and measured after 20 mins by fluorescence polarization assay; details: dose microM <=100, time 50.0 min
Chain of Induced myeloid leukemia cell differentiation protein Mcl-1 (Q07820 whole entry): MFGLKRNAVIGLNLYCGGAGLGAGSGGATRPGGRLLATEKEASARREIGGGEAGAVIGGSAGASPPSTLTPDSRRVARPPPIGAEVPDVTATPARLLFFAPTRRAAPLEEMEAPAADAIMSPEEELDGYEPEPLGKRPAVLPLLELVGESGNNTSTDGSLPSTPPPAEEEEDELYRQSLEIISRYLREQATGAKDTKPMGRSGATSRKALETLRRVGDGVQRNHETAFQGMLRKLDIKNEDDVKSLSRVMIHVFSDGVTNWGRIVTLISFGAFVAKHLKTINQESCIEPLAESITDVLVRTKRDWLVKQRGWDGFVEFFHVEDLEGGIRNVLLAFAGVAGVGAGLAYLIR

[4] = target: Bcl-2-like protein 1 (Homo sapiens, UniProt Q07817); test: Binding affinity to full length human Bcl-xl expressed in Escherichia coli BL21 (DE3) at up to 100 uM preincubated for 30 mins followed by 5-FAM-QEDIIIINIARHLAQVGDSMD-RSIPPG tracer addition and measured after 20 mins by fluorescence polarization assay; details: dose microM <=100, time 50.0 min
Chain of Bcl-2-like protein 1 (Q07817 whole entry): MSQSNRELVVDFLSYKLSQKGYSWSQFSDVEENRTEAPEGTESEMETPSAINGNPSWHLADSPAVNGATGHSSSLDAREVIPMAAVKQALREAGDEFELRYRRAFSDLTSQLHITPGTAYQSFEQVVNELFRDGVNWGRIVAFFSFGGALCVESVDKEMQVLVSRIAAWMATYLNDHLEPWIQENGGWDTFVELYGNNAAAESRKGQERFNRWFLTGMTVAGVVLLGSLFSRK

[5] = target: Apoptosis regulator Bcl-2 (Homo sapiens, UniProt P10415); test: Binding affinity to full length human Bcl-2 expressed in Escherichia coli BL21 (DE3) at up to 100 uM preincubated for 30 mins followed by 5-FAM-QEDIIIINIARHLAQVGDSMD-RSIPPG tracer addition and measured after 20 mins by fluorescence polarization assay; details: dose microM <=100, time 50.0 min
Chain of Apoptosis regulator Bcl-2 (P10415 whole entry): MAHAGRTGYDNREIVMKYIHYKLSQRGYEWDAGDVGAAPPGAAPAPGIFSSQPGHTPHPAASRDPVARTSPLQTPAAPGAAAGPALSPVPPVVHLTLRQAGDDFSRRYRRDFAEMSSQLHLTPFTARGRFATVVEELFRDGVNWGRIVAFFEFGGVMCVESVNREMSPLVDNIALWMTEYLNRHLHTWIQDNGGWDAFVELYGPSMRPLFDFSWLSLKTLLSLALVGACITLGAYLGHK

[6] = test system: HL-60; test: cells; details: Homo sapiens, HL-60, 48 h
Description: Cytotoxicity against human HL-60 cells assessed as inhibition of cell growth incubated for 48 hrs by CCK8 assay

[7] = test system: RS4-11; test: cells; details: Homo sapiens, RS4-11, 48 h
Description: Cytotoxicity against human RS4-11 cells assessed as inhibition of cell growth incubated for 48 hrs by CCK8 assay

Row | SMILES | IC50 [2] [µM] | Activity [3] | Activity [4] | Activity [5] | IC50 [6] [µM] | IC50 [7] [µM] | IC50 [1] [µM]
1 | O=[N+]([O-])c1cccc(NC(=S)NCCNS(=O)(=O)c2ccc(-c3ccccc3OCc3cccc(O)c3)s2)c1 | 11.1 | inactive | inactive | inactive | 11.4 | 9.8 | 13.8
2 | O=S(=O)(NCCNC(=S)Nc1cc(C(F)(F)F)cc(C(F)(F)F)c1)c1ccc(-c2ccccc2OCc2cccc(O)c2)s1 | 14.9 | inactive | inactive | inactive | > 50 | 12 | > 20
3 | CC(C)c1ccc(Oc2ccc(O)c(O)c2)c(-c2ccsc2S(=O)(=O)NCCNC(=S)Nc2ccc([N+](=O)[O-])cc2)c1 | > 20 | inactive | inactive | inactive | 8.8 | 5.1 | 16.3
4 | COc1cccc(NC(=O)NCCNS(=O)(=O)c2ccc(-c3ccccc3Oc3ccc([N+](=O)[O-])c([N+](=O)[O-])c3)s2)c1 | > 20 | inactive | inactive | inactive | 6.7 | 1.3 | 17.8
5 | Cc1cc(C)cc(NC(=O)NCCNS(=O)(=O)c2ccc(-c3ccccc3OCc3cccc(O)c3)s2)c1 | > 20 | inactive | inactive | inactive | > 20 | 5.8 | > 20
6 | COc1ccc(NC(=O)NCCNS(=O)(=O)c2sccc2-c2ccc(C)cc2Oc2ccc(O)c(O)c2)cc1 | > 20 | inactive | inactive | inactive | 6.1 | 8.2 | > 20
7 | O=S(=O)(NCCNC(=S)Nc1cccc(Cl)c1)c1ccc(-c2ccccc2OCc2ccccc2)s1 | 8.4 | inactive | inactive | inactive | > 50 | > 50 | 10.2
8 | COc1ccc(NC(=S)NCCNS(=O)(=O)c2sccc2-c2ccc(C)cc2Oc2ccc(O)c(O)c2)cc1 | > 20 | inactive | inactive | inactive | 4.1 | 8.3 | > 20
9 | O=C(NCCNS(=O)(=O)c1ccc(-c2ccccc2OCc2cccc(O)c2)s1)Nc1cc(Cl)cc(Cl)c1 | > 50 | inactive | inactive | inactive | 2.8 | > 50 | > 20

Second part, led by results:

Row | IC50 [2] [µM] | Activity [3] | Activity [4] | Activity [5] | IC50 [6] [µM] | IC50 [7] [µM] | SMILES | IC50 [1] [µM]
10 | > 20 | inactive | inactive | inactive | > 20 | 14.1 | O=C(NCCNS(=O)(=O)c1ccc(-c2ccccc2O[C@H]2CC[C@H](O)CC2)s1)Nc1cc(Cl)cc(Cl)c1 | > 50
11 | 14.1 | inactive | inactive | inactive | 3.1 | 9.3 | O=C(NCCNS(=O)(=O)c1ccc(-c2ccccc2O[C@H]2CC[C@@H](O)CC2)s1)Nc1cc(C(F)(F)F)cc(C(F)(F)F)c1 | 14.1
12 | > 20 | inactive | inactive | inactive | > 20 | 12.4 | O=C(NCCNS(=O)(=O)c1ccc(-c2ccccc2O[C@H]2CC[C@@H](O)CC2)s1)Nc1ccc([N+](=O)[O-])cc1 | 8.6
13 | 13.5 | inactive | inactive | inactive | 11.4 | > 50 | O=C(NCCNS(=O)(=O)c1ccc(-c2ccccc2OCc2ccccc2)s1)Nc1cc(C(F)(F)F)cc(C(F)(F)F)c1 | > 20
